Results from patent publication US10952999B2, “Inhibitor of cyclin-dependent kinase CDK9” (GENFLEET THERAPEUTICS (SHANGHAI) INC., priority 2017, dated 2021).
pIC50: −log10 of the molar value.

Key:
[1] = Body weight of mice in the MV4-11 mouse model; format: in vivo; details: orally per day, Bal b/c mice
Protocol: 24 Bal b/c female mice, 4-6 weeks, were purchased from Shanghai Slack Laboratory Animals Co., Ltd. and kept in SPF laboratory. The drinking water and padding were aseptically treated by autoclaving. All operations were carried out under aseptic conditions. On day 0, 5×10^6MV4-11 acute granulocyte leukemia cells (purchased from ATCC) were subcutaneously injected into the left side of all mice' back. Starting on day 15, all mice were divided into four groups (6 mice per group), methyl cellulose (HKI) solvent was orally administered to the first group of mice per day; compound 1 at a dose of 10 mg/kg mice body weight was orally administered to the second group of mice per day; compound 1 at a dose of 20 mg/kg mice body weight was orally administered to the third group of mice per day; compound 1 at a dose of 30 mg/kg mice body weight was orally administered to the fourth group of mice per day. From the start of administration, the length/width of the subcutaneous tumor was measured with a vernier caliper every day, and the body weight of the mouse was recorded every day, and the effect of compound 1 on the body weight of the mouse was observed. […] The trend of subcutaneous tumor growth was counted within day 16 to day 43, and the tumor volume was calculated as: length×width×width/2 mm^3.

CDK14/cyclin Y = biological target: T1, CDK14/cyclin Y (Homo sapiens, UniProt O94921); test: Enzyme assay for inhibition of CDK protein in vitro (Z-LYTE); format: biochemical
T1 construct: purchased Invitrogen, USA
T1 sequence (O94921 whole entry): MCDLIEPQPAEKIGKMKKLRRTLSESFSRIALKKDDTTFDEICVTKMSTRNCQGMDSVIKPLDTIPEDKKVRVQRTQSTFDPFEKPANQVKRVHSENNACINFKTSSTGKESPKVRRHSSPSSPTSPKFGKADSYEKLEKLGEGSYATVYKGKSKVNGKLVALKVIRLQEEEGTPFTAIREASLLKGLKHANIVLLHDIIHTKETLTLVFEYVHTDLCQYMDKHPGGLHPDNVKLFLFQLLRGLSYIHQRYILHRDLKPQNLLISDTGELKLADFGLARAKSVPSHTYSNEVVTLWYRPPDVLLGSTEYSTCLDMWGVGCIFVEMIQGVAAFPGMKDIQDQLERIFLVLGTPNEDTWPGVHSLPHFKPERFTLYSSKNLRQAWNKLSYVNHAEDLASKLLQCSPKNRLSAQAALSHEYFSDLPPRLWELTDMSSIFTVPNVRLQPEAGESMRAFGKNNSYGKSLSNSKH
T1 sequence (Q8ND76 whole entry partner): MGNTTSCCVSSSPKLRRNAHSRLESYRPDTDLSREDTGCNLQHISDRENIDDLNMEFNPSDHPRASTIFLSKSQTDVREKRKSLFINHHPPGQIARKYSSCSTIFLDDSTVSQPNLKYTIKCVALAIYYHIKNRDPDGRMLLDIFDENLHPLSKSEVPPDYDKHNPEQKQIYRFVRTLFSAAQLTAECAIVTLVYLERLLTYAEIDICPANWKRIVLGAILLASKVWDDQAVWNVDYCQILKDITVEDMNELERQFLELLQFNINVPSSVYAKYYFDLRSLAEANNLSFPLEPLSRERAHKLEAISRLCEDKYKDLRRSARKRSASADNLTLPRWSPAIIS
Protocol: (§1) Compounds 1 and 14 diluted in DMSO were mixed with detected CDK protein (Invitrogen, USA) respectively, incubated at room temperature for 30 minutes; and then mixed with Kinase/Z-LYTE™ Peptide Substrate Mixture (Invitrogen, USA) and 4×ATP. The mixed system was transferred to a 384-well white opaque plate to react for 1 hour at room temperature; 5 μL of Development Solution (Invitrogen, USA) was added to react at room temperature for 1 hour, and finally Stop Reagent (Invitrogen, USA) was added to terminate the reaction and MD SpectraMax I3× microplate reader (Molecular Devices, USA) was used to read fluorescence values.

CDK9/cyclin T1 = biological target: T2, CDK9/cyclin T1 (Homo sapiens, UniProt P50750); test: as above; format: biochemical
T2 construct: purchased Invitrogen, USA
T2 sequence (P50750 whole entry): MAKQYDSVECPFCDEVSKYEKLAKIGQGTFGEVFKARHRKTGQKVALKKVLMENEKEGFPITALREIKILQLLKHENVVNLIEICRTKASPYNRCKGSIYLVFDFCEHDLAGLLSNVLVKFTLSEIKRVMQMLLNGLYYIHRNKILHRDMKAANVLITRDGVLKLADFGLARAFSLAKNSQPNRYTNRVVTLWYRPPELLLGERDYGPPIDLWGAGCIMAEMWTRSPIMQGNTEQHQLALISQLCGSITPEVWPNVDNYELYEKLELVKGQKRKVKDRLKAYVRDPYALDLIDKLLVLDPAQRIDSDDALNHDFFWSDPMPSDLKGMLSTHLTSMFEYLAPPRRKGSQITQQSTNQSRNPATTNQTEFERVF
T2 sequence (O60563 whole entry partner): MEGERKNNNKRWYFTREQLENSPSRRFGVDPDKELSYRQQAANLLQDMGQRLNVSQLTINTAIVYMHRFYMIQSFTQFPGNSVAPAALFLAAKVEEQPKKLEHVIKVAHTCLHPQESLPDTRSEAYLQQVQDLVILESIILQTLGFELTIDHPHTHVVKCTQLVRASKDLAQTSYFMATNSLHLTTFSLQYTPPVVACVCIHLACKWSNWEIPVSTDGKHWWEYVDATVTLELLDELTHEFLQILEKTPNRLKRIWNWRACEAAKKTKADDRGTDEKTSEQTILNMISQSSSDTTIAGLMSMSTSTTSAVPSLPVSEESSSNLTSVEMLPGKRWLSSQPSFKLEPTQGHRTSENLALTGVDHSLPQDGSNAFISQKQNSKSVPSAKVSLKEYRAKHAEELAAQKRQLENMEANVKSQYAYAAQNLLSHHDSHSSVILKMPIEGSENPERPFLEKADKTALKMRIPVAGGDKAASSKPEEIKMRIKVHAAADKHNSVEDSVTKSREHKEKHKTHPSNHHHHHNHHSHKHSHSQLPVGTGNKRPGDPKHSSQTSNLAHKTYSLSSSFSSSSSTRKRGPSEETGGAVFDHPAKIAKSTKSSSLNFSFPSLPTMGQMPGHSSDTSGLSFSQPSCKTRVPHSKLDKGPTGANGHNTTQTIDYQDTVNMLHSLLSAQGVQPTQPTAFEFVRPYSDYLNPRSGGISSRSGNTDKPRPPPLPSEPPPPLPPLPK
Protocol: as §1

CDK5/p25 = biological target: T3, CDK5/p25 (Homo sapiens, UniProt Q00535); test: as above; format: biochemical
T3 construct: purchased Invitrogen, USA
T3 sequence (Q00535 whole entry): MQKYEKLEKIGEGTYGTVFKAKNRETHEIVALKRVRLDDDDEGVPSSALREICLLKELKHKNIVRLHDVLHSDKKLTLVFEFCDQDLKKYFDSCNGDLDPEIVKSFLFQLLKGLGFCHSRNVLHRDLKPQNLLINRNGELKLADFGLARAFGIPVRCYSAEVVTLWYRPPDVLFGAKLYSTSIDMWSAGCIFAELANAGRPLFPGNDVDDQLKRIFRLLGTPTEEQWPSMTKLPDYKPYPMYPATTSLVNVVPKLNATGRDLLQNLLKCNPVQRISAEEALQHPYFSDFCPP
T3 sequence (Q15078 99-307 partner limits assumed): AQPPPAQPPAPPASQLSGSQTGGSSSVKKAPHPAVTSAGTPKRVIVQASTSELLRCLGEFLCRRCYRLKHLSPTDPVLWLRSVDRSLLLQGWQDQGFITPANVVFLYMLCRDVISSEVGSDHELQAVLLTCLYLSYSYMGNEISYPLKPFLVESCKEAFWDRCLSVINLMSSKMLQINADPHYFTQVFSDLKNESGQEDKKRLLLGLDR
Protocol: as §1

CDK8/cyclin C = biological target: T4, CDK8/cyclin C (Homo sapiens, UniProt P49336); test: as above; format: biochemical
T4 construct: purchased Invitrogen, USA
T4 sequence (P49336 whole entry): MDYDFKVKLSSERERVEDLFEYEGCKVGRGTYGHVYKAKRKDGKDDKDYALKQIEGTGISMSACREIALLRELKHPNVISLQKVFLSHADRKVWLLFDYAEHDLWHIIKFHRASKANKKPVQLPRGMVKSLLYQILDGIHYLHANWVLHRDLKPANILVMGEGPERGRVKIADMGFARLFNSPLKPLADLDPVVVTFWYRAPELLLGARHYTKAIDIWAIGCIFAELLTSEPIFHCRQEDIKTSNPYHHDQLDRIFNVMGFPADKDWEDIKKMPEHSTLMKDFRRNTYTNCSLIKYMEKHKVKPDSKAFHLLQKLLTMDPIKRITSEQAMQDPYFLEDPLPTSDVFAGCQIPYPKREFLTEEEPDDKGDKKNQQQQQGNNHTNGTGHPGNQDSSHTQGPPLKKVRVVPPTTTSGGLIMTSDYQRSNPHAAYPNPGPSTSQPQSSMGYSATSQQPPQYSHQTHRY
T4 sequence (P24863 whole entry partner): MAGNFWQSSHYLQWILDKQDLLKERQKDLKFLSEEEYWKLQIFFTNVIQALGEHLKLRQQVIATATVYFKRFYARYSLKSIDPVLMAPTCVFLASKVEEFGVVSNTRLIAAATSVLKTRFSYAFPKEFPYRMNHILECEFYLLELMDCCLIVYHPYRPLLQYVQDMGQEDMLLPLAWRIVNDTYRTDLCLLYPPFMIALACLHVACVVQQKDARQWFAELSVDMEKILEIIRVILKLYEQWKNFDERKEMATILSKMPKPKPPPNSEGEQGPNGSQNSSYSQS
Protocol: as §1

CDK7/cyclin HMNAT1 = biological target: T5, CDK7/cyclin HMNAT1 (Homo sapiens, UniProt P50613); test: as above; format: biochemical
T5 construct: purchased Invitrogen, USA
T5 sequence (P50613 whole entry): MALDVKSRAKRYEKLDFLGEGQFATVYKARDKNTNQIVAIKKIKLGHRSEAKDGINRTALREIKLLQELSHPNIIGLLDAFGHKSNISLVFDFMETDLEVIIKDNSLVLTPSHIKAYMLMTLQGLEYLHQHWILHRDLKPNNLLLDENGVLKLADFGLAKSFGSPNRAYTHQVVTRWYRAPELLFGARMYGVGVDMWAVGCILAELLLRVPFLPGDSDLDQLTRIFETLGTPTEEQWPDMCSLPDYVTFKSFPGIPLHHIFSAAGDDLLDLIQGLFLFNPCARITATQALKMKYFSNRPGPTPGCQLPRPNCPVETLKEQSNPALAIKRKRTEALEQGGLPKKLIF
T5 sequence (P51946 whole entry partner): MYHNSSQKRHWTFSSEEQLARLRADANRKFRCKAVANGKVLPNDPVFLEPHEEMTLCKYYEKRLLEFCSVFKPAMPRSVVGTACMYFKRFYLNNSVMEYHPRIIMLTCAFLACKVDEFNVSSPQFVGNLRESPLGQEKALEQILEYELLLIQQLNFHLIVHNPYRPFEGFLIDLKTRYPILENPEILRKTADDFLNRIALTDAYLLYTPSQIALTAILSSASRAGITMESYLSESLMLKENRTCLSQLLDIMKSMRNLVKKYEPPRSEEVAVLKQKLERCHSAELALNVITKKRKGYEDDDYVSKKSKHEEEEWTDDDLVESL
T5 sequence (P51948 whole entry partner): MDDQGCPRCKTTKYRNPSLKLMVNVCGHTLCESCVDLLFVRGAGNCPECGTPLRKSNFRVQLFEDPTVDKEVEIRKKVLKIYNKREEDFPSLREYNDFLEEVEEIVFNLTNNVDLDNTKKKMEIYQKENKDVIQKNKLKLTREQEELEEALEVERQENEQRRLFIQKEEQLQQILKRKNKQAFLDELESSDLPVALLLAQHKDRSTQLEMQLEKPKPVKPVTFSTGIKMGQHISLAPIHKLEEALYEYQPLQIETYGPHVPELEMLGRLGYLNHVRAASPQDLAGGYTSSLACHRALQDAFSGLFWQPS
Protocol: as §1

CDK2/cyclin A = biological target: T6, CDK2/cyclin A (Homo sapiens, UniProt P24941); test: as above; format: biochemical
T6 construct: purchased Invitrogen, USA
Protocol: as §1

CDK11(non-active) = biological target: T7, CDK11(non-active) (Homo sapiens, UniProt Q9BWU1); test: as above; format: biochemical
T7 construct: purchased Invitrogen, USA
T7 sequence (Q9BWU1 whole entry): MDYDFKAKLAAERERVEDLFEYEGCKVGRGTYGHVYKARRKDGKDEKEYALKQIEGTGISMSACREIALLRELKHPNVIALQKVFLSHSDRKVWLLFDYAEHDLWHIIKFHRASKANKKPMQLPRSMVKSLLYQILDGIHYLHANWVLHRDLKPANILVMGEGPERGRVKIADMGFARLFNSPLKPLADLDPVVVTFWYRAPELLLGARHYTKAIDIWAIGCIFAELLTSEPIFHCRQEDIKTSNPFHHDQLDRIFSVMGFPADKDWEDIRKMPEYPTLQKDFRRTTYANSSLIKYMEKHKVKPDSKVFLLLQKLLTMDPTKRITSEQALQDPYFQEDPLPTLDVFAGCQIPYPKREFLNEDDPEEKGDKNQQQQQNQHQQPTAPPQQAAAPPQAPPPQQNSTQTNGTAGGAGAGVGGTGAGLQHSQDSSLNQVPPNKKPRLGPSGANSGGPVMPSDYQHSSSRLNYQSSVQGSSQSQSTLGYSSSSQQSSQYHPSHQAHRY
Protocol: as §1

[2] = test system: phosphorylation of RNAPII, MCL-1, and c-MYC in NB-4; test: Effect on signaling pathway downstream of CDK9; format: cell-based; details: NB-4, 0.03-3 μM, 2 hours
Protocol: (§2) Against four cells, acute myelocytic leukemia cell line (AML) OCI-AML-3, acute promyelocytic leukemia cell line NB-4, acute myelocytic leukemia cell line (AML) HL-60 and acute myelocytic leukemia cell line (AML) MV4-11 (all purchased from ATCC), by measuring the biochemical endpoints and functional endpoints of multiple cells, the effect of compound 1 was evaluated on CDK9 in cells and other protein kinases related to its signaling pathway, such as RNAPII, XIAP, MCL-1, c-MYC, BCL-2 and so on. […] The effect of Compound 1 on the phosphorylation of CDK9, RNAPII, XIAP, MCL-1, c-MYC, BCL-2 in these cell lines was determined (FIG. 1a-d).

[3] = test system: phosphorylation of RNAPII, MCL-1, and c-MYC in OCI-AML-3; test: Effect on signaling pathway downstream of CDK9; format: cell-based; details: OCI-AML-3, 0.03-3 μM, 2 hours
Protocol: as §2

[4] = test system: phosphorylation of RNAPII, MCL-1, and c-MYC in MV4-11; test: Effect on signaling pathway downstream of CDK9; format: cell-based; details: MV4-11, 0.03-3 μM, 2 hours
Protocol: as §2

[5] = test system: phosphorylation of RNAPII, MCL-1, and c-MYC in HL-60; test: Effect on signaling pathway downstream of CDK9; format: cell-based; details: HL-60, 0.03-3 μM, 2 hours
Protocol: as §2

[6] = test system: acute myelocytic leukemia cell line (AML) HL-60; test: Effect on cell cycle distribution, PI staining, flow cytometry; format: cell-based; details: HL-60, 0.01-0.1 μM, 12, 24 or 48 hours
Protocol: (§3) In order to study in which cycle the cells were prevented after administration, in the three cell lines, acute promyelocytic leukemia cell line NB-4, acute myelocytic leukemia cell line (AML) HL-60, and acute myelocytic leukemia cell line (AML) MV4-11, the effects of compound 1 on the cell cycle distribution of these cell lines were tested. […] The cell cycle distribution was measured by flow cytometry (BD FACS Calibur).

[7] = test system: acute myelocytic leukemia cell line (AML) MV4-11; test: as above; format: cell-based; details: MV4-11, 0.01-0.1 μM, 12, 24 or 48 hours
Protocol: as §3

[8] = test system: acute promyelocytic leukemia cell line NB-4; test: as above; format: cell-based; details: NB-4, 0.01-0.1 μM, 12, 24 or 48 hours
Protocol: as §3

[9] = test system: acute myelocytic leukemia cell line (AML) OCI-AML-3; test: Effect on apoptosis, Western Blot of PARP and Caspase 3 shear; format: cell-based; details: OCI-AML-3, 0.01-0.1 μM, 24 hours
Description: (§4) Western Blot was used to detect the effects of drugs in different concentrations on DNA repair enzyme polyadenylation diphosphate-ribose polymerase PARP and protein shear of cysteine-containing aspartate proteolytic enzyme Caspase 3 at different time intervals.

[10] = test system: acute myelocytic leukemia cell line (AML) HL-60; test: as above; format: cell-based; details: HL-60, 0.01-0.1 μM, 24 hours
Description: as §4

[11] = test system: acute myelocytic leukemia cell line (AML) MV4-11; test: as above; format: cell-based; details: MV4-11, 0.01-0.1 μM, 24 hours
Description: as §4

[12] = test system: acute promyelocytic leukemia cell line NB-4; test: as above; format: cell-based; details: NB-4, 0.01-0.1 μM, 24 hours
Description: as §4

[13] = test system: MV4-11 acute granulocyte leukemia cells; test: Human acute granulocyte leukemia MV4-11 mouse model, subcutaneous tumor; format: in vivo, mice
Protocol: 24 Bal b/c female mice, 4-6 weeks, were purchased from Shanghai Slack Laboratory Animals Co., Ltd. and kept in SPF laboratory. The drinking water and padding were aseptically treated by autoclaving. All operations were carried out under aseptic conditions. On day 0, 5×10^6MV4-11 acute granulocyte leukemia cells (purchased from ATCC) were subcutaneously injected into the left side of all mice' back. Starting on day 15, all mice were divided into four groups (6 mice per group), methyl cellulose (HKI) solvent was orally administered to the first group of mice per day; compound 1 at a dose of 10 mg/kg mice body weight was orally administered to the second group of mice per day; compound 1 at a dose of 20 mg/kg mice body weight was orally administered to the third group of mice per day; compound 1 at a dose of 30 mg/kg mice body weight was orally administered to the fourth group of mice per day. From the start of administration, the length/width of the subcutaneous tumor was measured with a vernier caliper every day, and the body weight of the mouse was recorded every day, and the effect of compound 1 on the body weight of the mouse was observed. On day 43, the mice were sacrificed, subcutaneous tumors were taken out, and tumors were weighed and compared, and then a sample of protein lysate was prepared from the tumor sample tissue for use. The trend of subcutaneous tumor growth was counted within day 16 to day 43, and the tumor volume was calculated as: length×width×width/2 mm^3.

Compound: COC[C@@H](C)N[C@H]1CC[C@H](Nc2cc(-c3csc(NCC4(C#N)CCOCC4)n3)c(Cl)cn2)CC1 [Compound 1, 4-(((4-(5-chloro-2-(((1R,4r)-4-(((R)-1-methoxypropyl-2-yl)amino)cyclohexyl)amino)pyridin-4-yl)thiazol-2-yl)amino)methyl)tetrahydro-2H-pyran-4-carbonitrile]
- effect on the body weight of mice ([1]; high dose group (20, 30 mg/kg)): affected the body weight
- effect on the body weight of mice ([1]; low dose group (10 mg/kg)): no significant effect
- pIC50 (CDK14/cyclin Y): 5.57
- pIC50 (CDK9/cyclin T1): 9.03
- pIC50 (CDK5/p25): 5.16
- pIC50 (CDK8/cyclin C): < 5.00
- pIC50 (CDK7/cyclin HMNAT1): 5.43
- pIC50 (CDK2/cyclin A): 5.16
- pIC50 (CDK11(non-active)): < 5.00
- effect on the phosphorylation of RNAPII, MCL-1, and c-MYC directly downstream of CDK9 protein [2]: significant inhibitory effect
- effect on the phosphorylation of RNAPII, MCL-1, and c-MYC directly downstream of CDK9 protein [3]: significant inhibitory effect
- effect on the phosphorylation of RNAPII, MCL-1, and c-MYC directly downstream of CDK9 protein [4]: significant inhibitory effect
- effect on the phosphorylation of RNAPII, MCL-1, and c-MYC directly downstream of CDK9 protein [5]: significant inhibitory effect
- effect on the cell cycle [6]: blocked the cells in G0-G1 phase
- effect on the cell cycle [7]: blocked the cells in G0-G1 phase
- effect on the cell cycle [8]: blocked the cells in G0-G1 phase
- apoptosis (shear of PARP or Caspase 3) [9]: could cause apoptosis
- apoptosis (shear of PARP or Caspase 3) [10]: could cause apoptosis
- apoptosis (shear of PARP or Caspase 3) [11]: could cause apoptosis
- apoptosis (shear of PARP or Caspase 3) [12]: could cause apoptosis
- growth of subcutaneous tumors (in words) ([13]; 10, 20, 30 mg/kg orally per day, Bal b/c mice): effective in inhibiting the growth of subcutaneous tumors
- tumor growth inhibition (TGI) ([13]; high dose group (20, 30 mg/kg), orally per day, day 15 to day 43, Bal b/c mice): 98.7%
- weight of the subcutaneous tumor ([13]; low dose group (10 mg/kg), orally per day, Bal b/c mice): significantly reduced
